Results on 3 molecules are retold here after ChEMBL document CHEMBL5046275 (J Med Chem, 2022).

For data set [1], the target named is T1, Cyclin-dependent kinase 5/CDK5 activator 1 (Homo sapiens, UniProt Q00535). The data set is described as follows: Inhibition of full length N-terminal GST fused human CDK5(1 to 292 residues)/ p25 (99 to 307 residues) expressed in baculovirus expression system using FL peptide as substrate preincubated for 30 mins followed by substrate addition further incubated for 60 mins by EZ reader method.

Another data set deals with CDK2/Cyclin A2 (Homo sapiens, UniProt P24941). The data set is described as follows: Inhibition of full length N-terminal GST tagged human CDK2(1 to 298 residues)/CyclinA2 (1 to 432 residues) expressed in baculovirus expression system using FL peptide as substrate preincubated for 30 mins followed by substrate addition further incubated for 120 mins by EZ reader method.

The species named for data set [2] is Homo sapiens. As to the kind of experiment: Selectivity ratio of IC50 for inhibition of full length N-terminal GST tagged human CDK2(1 to 298 residues)/CyclinA2 (1 to 432 residues) to IC50 for inhibition of full length N-terminal GST fused human CDK5(1 to 292 residues)/ p25 (99 to 307 residues).
The target in the next data set is CDK6/cyclin D3 (Homo sapiens, UniProt Q00534). As to the kind of experiment: Inhibition of full length N-terminal GST fused human CDK6 (1 to 326 residues)/CyclinD3 (1 to 292 residues) expressed in baculovirus expression system using FL peptide as substrate preincubated for 30 mins followed by substrate addition and further incubated for 120 mins by EZ reader method.

A further data set deals with CDK7/Cyclin H/MNAT1 (Homo sapiens, UniProt P50613). As to the kind of experiment: Inhibition of full length N-terminal GST fused human CDK7 (1 to 346 residues)/CyclinH (1 to 323 residues)/ MAT1 (1 to 309 residues) expressed in baculovirus expression system using FL peptide as substrate preincubated for 30 mins followed by substrate addition and further incubated for 90 mins by EZ reader method.

Another data set addresses CDK9/cyclin T1 (Homo sapiens, UniProt P50750). As to the kind of experiment: Inhibition of full length N-terminal GST fused human CDK9(1 to 372 residues)/ His- tagged CyclinT1 (1 to 726 residues) expressed in baculovirus expression system using FL peptide as substrate preincubated for 30 mins followed by substrate addition and further incubated for 90 mins by EZ reader method.

The target of data set [3] is T1, Cyclin-dependent kinase 5/CDK5 activator 1. The data set is described as follows: Inhibition of Nano-Luc fused human full length CDK5/P35 transfected in HEK293 cells incubated for 1 hr by NanoBRET assay. In kind it is cell-based. Background: In BRET a luciferase serves as donor, and the signal depends on an acceptor being close.
The subject of another data set is HEK-293T. As to the kind of experiment: Antiproliferative activity against human HEK293T cells assessed as cell growth inhibition incubated for 48 hrs. In kind it is functional, cell-based.
Data set [4] in a line: Kinetic aqueous solubility of compound in PBS at pH 7.4 incubated for 2 hrs by LC-MS/MS analysis. In kind it is physicochemical. The settings on record: read-out: Kinetic_solubility.
Another data set deals with P-gp. As to the kind of experiment: Substrate activity at P-gp in dog MDCKII-MDR1 cells assessed as efflux ratio of permeability at 1 uM incubated for 120 mins. The conditions noted are these: MDCK-MDR1. In kind it is ADME, cell-based, Canis lupus familiaris.
Data set [5] in a line: Apparent permeability across apical to basolateral side in dog MDCKII-MDR1 cells at 1 uM incubated for 120 mins. In kind it is ADME, cell-based, Canis lupus familiaris. The settings on record: MDCK-MDR1.
The nature of data set [6]: Plasma protein binding in Sprague-Dawley rat at 1 uM incubated for 6 hrs by equilibrium dialysis based LC-MS/MS analysis. In kind it is ADME, cell-free. The conditions noted are these: read-out: PPB (converted).
Data set [7] can be described thus: Metabolic stability human hepatocytes assessed as intrinsic clearance at 1 uM measured up to 120 mins by LC-MS/MS analysis. Format: ADME, cell-based, Hepatocyte. The conditions noted are these: read-out: CLH.
A short description of data set [8]: Metabolic stability in CD-1 mouse hepatocytes assessed as intrinsic clearance at 1 uM measured up to 120 mins by LC-MS/MS analysis. Format: ADME, cell-based, Hepatocyte. The conditions noted are these: read-out: CLH.
Data set [9] in a line: Metabolic stability in Sprague-Dawley rat hepatocytes assessed as intrinsic clearance at 1 uM measured up to 120 mins by LC-MS/MS analysis. The settings on record: read-out: CLH. Format: ADME, cell-based, Hepatocyte.
A short description of data set [10]: Clearance in Sprague-Dawley rat at 1 mg/kg, iv measured upto 24 hrs by LC-MS/MS analysis. In kind it is ADME, organism-based. The settings on record: in vivo.
The nature of data set [11]: Volume of distribution at steady state in Sprague-Dawley rat at 1 mg/kg, iv measured upto 24 hrs by LC-MS/MS analysis. The conditions noted are these: in vivo, read-out: Vdss. In kind it is ADME, organism-based.
The nature of data set [12]: Half life in Sprague-Dawley rat at 1 mg/kg, iv measured upto 24 hrs by LC-MS/MS analysis. The conditions noted are these: in vivo. Format: ADME, organism-based.
Data set [13] can be described thus: AUC (0 to 24 hrs) in Sprague-Dawley rat at 1 mg/kg, iv measured upto 24 hrs by LC-MS/MS analysis. The settings on record: in vivo. In kind it is ADME, organism-based. More on the design: route intravenous, dose 1 mg/kg, time <=24.
Data set [14] in a line: Cmax in Sprague-Dawley rat at 3 mg/kg, po measured upto 24 hrs by LC-MS/MS analysis. Format: ADME, organism-based. More on the design: route oral, dose 3 mg/kg, time <=24. The conditions noted are these: in vivo.
Data set [15] in a line: AUC (0 to 24 hrs) in Sprague-Dawley rat at 3 mg/kg, po measured upto 24 hrs by LC-MS/MS analysis. Format: ADME, organism-based. More on the design: route oral, dose 3 mg/kg, time <=24. The settings on record: in vivo.
A short description of data set [16]: Oral bioavailability in Sprague-Dawley rat at 3 mg/kg measured upto 24 hrs by LC-MS/MS analysis. In kind it is ADME, organism-based. The settings on record: in vivo.
The species entered for data set [17] is Homo sapiens. As to the kind of experiment: Selectivity ratio of IC50 for human CDK6 to IC50 for human CDK5.
Data set [18] is filed under the species Homo sapiens. As to the kind of experiment: Selectivity ratio of IC50 for human CDK7 to IC50 for human CDK5.
Data set [19] is filed under the species Homo sapiens. The data set is described as follows: Selectivity ratio of IC50 for human CDK9 to IC50 for human CDK5.
The nature of data set [20]: Cmax in Sprague-Dawley rat at 10 mg/kg, po measured upto 24 hrs by LC-MS/MS analysis. Format: ADME, organism-based. The settings on record: in vivo. More on the design: route oral, dose 10 mg/kg, time <=24.
The nature of data set [21]: AUC (0 to 24 hrs) in Sprague-Dawley rat at 10 mg/kg, po measured upto 24 hrs by LC-MS/MS analysis. Format: ADME, organism-based. More on the design: route oral, dose 10 mg/kg, time <=24. The conditions noted are these: in vivo.
The nature of data set [22]: Oral bioavailability in Sprague-Dawley rat at 10 mg/kg measured upto 24 hrs by LC-MS/MS analysis. Format: ADME, organism-based. The conditions noted are these: in vivo.

In brackets after ≈: the same amount, converted by molar mass. A value given as a limit tells only on which side of the number the result lay.

Chain of CDK6/cyclin D3 (P30281 whole entry, the tested form may be a part): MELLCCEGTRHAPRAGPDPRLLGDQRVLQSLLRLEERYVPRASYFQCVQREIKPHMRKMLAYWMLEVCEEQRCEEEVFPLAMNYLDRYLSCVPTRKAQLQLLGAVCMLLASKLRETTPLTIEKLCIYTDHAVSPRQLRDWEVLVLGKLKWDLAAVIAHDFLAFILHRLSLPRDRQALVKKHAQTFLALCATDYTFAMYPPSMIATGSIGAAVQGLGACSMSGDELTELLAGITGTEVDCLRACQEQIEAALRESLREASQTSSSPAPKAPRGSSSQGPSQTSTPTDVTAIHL
Chain of CDK6/cyclin D3 (Q00534 whole entry, the tested form may be a part): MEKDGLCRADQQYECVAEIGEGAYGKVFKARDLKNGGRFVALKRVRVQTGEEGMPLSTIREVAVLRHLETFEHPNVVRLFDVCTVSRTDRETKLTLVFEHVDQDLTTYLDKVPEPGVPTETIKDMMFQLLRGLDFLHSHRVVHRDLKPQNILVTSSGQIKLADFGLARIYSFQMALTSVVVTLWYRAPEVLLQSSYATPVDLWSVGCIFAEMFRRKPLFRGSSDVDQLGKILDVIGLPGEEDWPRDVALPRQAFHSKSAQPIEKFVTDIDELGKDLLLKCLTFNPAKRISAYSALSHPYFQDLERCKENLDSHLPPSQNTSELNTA
Chain of CDK9/cyclin T1 (O60563 whole entry, the tested form may be a part): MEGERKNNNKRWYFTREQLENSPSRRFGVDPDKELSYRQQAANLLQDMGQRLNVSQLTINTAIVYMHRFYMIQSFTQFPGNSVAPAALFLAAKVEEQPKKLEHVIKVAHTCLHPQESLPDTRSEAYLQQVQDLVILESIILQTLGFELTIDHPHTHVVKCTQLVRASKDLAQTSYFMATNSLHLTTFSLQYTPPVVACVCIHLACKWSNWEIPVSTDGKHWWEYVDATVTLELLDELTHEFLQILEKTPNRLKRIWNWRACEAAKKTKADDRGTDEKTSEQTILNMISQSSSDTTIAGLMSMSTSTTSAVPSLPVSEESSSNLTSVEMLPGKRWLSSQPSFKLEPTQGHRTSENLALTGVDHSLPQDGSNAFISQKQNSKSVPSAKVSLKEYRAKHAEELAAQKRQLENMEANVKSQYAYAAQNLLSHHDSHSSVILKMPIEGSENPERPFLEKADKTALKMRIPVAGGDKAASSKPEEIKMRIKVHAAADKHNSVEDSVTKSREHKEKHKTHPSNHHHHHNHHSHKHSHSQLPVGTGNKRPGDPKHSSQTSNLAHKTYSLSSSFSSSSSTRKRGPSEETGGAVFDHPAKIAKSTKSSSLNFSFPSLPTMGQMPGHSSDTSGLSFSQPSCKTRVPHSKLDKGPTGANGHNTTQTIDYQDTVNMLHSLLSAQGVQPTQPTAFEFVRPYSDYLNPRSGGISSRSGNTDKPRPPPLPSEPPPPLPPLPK
Chain of CDK9/cyclin T1 (P50750 whole entry, the tested form may be a part): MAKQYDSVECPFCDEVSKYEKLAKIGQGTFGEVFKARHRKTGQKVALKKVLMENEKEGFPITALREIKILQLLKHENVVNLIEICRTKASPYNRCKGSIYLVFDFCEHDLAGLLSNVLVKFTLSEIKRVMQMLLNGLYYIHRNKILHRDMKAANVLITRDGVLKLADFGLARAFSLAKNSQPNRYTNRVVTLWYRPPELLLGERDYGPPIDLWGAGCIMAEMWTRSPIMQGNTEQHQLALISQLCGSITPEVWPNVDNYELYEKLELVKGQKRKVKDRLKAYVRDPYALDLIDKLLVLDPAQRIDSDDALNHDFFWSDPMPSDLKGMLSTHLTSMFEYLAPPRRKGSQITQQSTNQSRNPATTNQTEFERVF
Chain of CDK7/Cyclin H/MNAT1 (P51946 whole entry, the tested form may be a part): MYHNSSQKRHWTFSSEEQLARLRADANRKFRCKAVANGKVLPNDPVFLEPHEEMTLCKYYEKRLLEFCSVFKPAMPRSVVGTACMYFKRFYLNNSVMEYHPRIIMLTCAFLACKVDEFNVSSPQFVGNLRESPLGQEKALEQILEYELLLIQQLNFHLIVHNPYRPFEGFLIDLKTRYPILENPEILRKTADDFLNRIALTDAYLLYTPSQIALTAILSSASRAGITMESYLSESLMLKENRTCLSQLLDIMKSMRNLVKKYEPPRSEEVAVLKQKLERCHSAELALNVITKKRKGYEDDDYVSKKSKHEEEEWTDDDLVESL
Chain of CDK7/Cyclin H/MNAT1 (P50613 whole entry, the tested form may be a part): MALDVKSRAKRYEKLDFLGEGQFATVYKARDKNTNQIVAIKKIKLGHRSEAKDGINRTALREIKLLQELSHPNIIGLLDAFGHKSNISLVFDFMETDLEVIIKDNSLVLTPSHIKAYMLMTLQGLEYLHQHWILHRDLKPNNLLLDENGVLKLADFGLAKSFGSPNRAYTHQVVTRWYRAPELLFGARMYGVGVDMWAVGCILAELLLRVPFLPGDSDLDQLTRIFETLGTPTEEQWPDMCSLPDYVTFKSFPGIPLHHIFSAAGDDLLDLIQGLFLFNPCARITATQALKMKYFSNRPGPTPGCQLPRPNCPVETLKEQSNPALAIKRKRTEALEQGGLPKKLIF
Chain of CDK7/Cyclin H/MNAT1 (P51948 whole entry, further chain, the tested form may be a part): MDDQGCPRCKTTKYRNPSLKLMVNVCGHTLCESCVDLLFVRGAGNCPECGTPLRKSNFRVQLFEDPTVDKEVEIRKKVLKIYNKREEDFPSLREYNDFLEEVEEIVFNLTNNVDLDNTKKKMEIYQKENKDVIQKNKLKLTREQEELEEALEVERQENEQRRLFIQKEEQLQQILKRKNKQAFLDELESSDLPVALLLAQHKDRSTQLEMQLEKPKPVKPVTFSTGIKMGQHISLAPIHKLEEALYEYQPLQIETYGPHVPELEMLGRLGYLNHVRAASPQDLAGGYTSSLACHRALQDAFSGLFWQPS
T1 sequence (Q00535 whole entry, the tested form may be a part): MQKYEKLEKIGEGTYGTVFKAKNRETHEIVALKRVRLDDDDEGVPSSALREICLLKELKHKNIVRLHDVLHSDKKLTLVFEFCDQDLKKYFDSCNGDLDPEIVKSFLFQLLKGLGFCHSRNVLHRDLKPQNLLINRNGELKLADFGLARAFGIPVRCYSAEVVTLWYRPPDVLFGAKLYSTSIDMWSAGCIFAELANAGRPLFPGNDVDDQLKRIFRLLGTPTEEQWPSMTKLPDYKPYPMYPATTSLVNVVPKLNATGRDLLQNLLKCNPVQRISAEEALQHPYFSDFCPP
T1 sequence (Q15078 whole entry, further chain, the tested form may be a part): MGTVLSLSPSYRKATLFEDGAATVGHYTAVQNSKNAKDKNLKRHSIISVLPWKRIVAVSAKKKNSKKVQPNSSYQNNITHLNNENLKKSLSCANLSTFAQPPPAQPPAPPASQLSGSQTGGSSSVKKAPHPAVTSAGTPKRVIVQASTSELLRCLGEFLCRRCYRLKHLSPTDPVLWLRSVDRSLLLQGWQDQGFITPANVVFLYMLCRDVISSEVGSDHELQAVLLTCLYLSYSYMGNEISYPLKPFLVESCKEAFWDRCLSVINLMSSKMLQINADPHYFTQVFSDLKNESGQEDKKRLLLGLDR

Usually IC50 stands for the concentration at which inhibition is half-maximal. What is called efflux ratio is a quotient of directional permeabilities that is used to spot active efflux. Broadly, the Papp A→B is how fast a substance crosses the layer from the apical side. A word on the clearance: it is a measure of how efficiently the substance is removed, as volume per time. The half-life is how long it takes for the measured level to halve. Low readings indicate fast loss, high ones slow loss. As a reminder, the AUC(0-t) is the area under the concentration-time curve up to a stated or last time point. Read a high AUC(0-t) as high exposure. A word on the Cmax: it is the highest concentration seen after dosing. A word on the bioavailability: it is dose-corrected exposure relative to a reference, in per cent. A low value points to poor availability. On to `CN1CCC([C@@](C)(O)c2ccc3cnc(Nc4cc(N5CCOCC5)ncc4F)cc3n2)CC1`, for which the IC50 amounted to 3.2 nM in data set [1]; 301 nM against CDK2/Cyclin A2; 125 nM on CDK6/cyclin D3; 78 nM against CDK7/Cyclin H/MNAT1; 154 nM on CDK9/cyclin T1; 1.2 nM in data set [3]. Besides, the IC50 in the data set on HEK-293T is above 10000 nM. In addition, the Ratio IC50 in the data set filed under Homo sapiens [2] amounted to 94. Further, the solubility kinetic at 2 h in data set [4] amounted to 274 µM (≈ 128 µg/mL). Further, the efflux ratio at 2 h, 1 µM in the data set on P-gp was determined as 38. For the same molecule, the Papp A→B at 2 h, 1 µM in data set [5] worked out at 7.9 ×10⁻⁶ cm/s. In [6], the fraction unbound at 6 h, 1 µM was 0.53. In addition, the values for the CLint scaled at 1 µM in [7], in [8] and in [9] were below 7 mL/min/kg, 69 mL/min/kg and below 13 mL/min/kg, respectively. Also, the clearance in data set [10] came out at 53 mL/min/kg. In addition, in [11], the Vd amounted to 9.4 L/kg. In addition, the half-life in data set [12] is 2.7 h. The values for the exposure AUC(0-t) in [13] and in data set [15] were 305 ng·h/mL and 143 ng·h/mL, respectively. This molecule also showed a Cmax in data set [14] of 19 ng/mL. In [16], this molecule returned a bioavailability of 16%.

As for `CN1CCC([C@@](C)(O)c2ccc3cnc(Nc4cc(N5CCOCC5)ccc4F)cc3n2)CC1`, the concentration for half-maximal inhibition (IC50) in data set [1] turned out to be 1.8 nM; against CDK2/Cyclin A2, 194 nM; against CDK6/cyclin D3, 245 nM; against CDK7/Cyclin H/MNAT1 it was 73 nM; on CDK9/cyclin T1, 138 nM; in data set [3] it was 0.2 nM. Moreover, the half-inhibitory concentration (IC50) with HEK-293T came out at 6400 nM. Moreover, the Ratio IC50 in the data set filed under Homo sapiens [2] is 108; in the data set listed under Homo sapiens [17], 136; in the data set filed under Homo sapiens [18], 41; in the data set filed under Homo sapiens [19], 77.

In the case of `CN1CCC([C@@](C)(O)c2ccc3cnc(Nc4cc(C(F)(F)F)ncc4F)cc3n2)CC1`, the IC50 came out at 2.3 nM in [1]; 211 nM on CDK2/Cyclin A2; 3200 nM at CDK6/cyclin D3; 718 nM at CDK7/Cyclin H/MNAT1; 894 nM at CDK9/cyclin T1. In addition, the Ratio IC50 in the data set listed under Homo sapiens [2] worked out at 92; in the data set filed under Homo sapiens [17], 1390; in the data set listed under Homo sapiens [18], 312; in the data set listed under Homo sapiens [19] it was 389. Also, in data set [4], the solubility kinetic at 2 h stood at 259 µM (≈ 116 µg/mL). Moreover, the efflux ratio at 2 h, 1 µM in the data set on P-gp was determined as 9. In addition, in data set [5], the Papp A→B at 2 h, 1 µM stood at 18 ×10⁻⁶ cm/s. For the same molecule, the fraction unbound at 6 h, 1 µM in [6] was 0.37. Further, the CLint scaled at 1 µM in data set [7] was found to be 13 mL/min/kg; in [8], 89 mL/min/kg; in data set [9], 17 mL/min/kg. The clearance in data set [10] was 12 mL/min/kg. Further, the Vd in data set [11] was 7.3 L/kg. In addition, the half-life in [12] was 7.6 h. The AUC(0-t) in data set [13] was 1300 ng·h/mL; in [15], 999 ng·h/mL; in data set [21], 5320 ng·h/mL. In addition, the Cmax in [14] was 83 ng/mL; in [20], 350 ng/mL. The bioavailability in data set [16] came to 25%; in data set [22], 41%.
